The text below walks through data of US20070253942A1, “Lectin-directed prodrug delivery system” (Isis Innovation Limited, priority 2001, published 2007).

SMILES strings stand for the structures.

This data set can be described thus: Tritosomal stability of p-nitrophenyl glycosides. To be noted: for tritosomal cleavage (production of p-nitrophenol, absorbance at 410 nm): substrate 31.0 mg/ml in DMSO, 37° C., after 20 hours; for Readings from spectrometer, absorbance at 410 nm, Assay 1 / Readings from spectrometer, absorbance at 410 nm, Assay 2: rat, pH 5.5. Format: in vitro ADME, rat. An excerpt:
One essential facet of the LEAPT concept is that the rhamnoside-capped prodrugs will be cleaved only by the selectively delivered naringinase construct. To ensure that this is possible, a lysosomal tritosome preparation was used to assess the potential cleavage of α-L-rhamnopyranosides by enzymes in the hepatocytes. p-Nitrophenyl α-L-rhamnopyranoside was used as a chromogenic prodrug mimic. If there are enzymes present in the hepatocytes capable of cleaving α-L-rhamnopyranosidic linkages, this would be detected over an extended assay by the production of p-nitrophenol. Assay conditions based on those used in 2.2.4 were recreated with the used of pNP-α-L-Rha instead of the protease substrate. The mixture was incubated at 37° C. and the absorbance at 410 nm recorded every 5 minutes.
With the concentration of pNP-α-L-Rha increased ten-fold, the tritosomal stability of rhamnopyranosides was reassessed.
Further assessments of the glycosidic enzymes present in the tritosomal preparation were required to allow further design of prodrugs. An assay equivalent to 2.8.7 was used to assess β-D-galactopyranosidic activity.
Further assessments of the glycosidic enzymes present in the tritosomal preparation were required to allow further design of prodrugs. An assay equivalent to 2.3.7 was used to assess β-D-glucopyranosidic activity.
A stock solution of p-nitrophenyl α-L-rhamnopyranoside in DMSO (3.1 mg/ml, equivalent to BzPheValArgNap solution) was used in an assay equivalent to 2.8.4.
As no activity against α-L-rhamnopyranosides was detected in the previous assay, a higher concentration of pNPαL-Rha (31.0 mg/ml) in DMSO was used in an otherwise identical assay. In addition, the cuvette was incubated at 37° C. for 20 hours and the absorbance reading repeated.
A stock solution of p-nitrophenyl β-D-galactopyranoside in DMSO (31.0 mg/ml) was used in an assay equivalent to 2.8.7. In addition, the cuvette was incubated at 37° C. for 20 hours and the absorbance reading repeated.
A stock solution of p-nitrophenyl β-D-glucopyranoside in DMSO (31.0 mg/ml) was used in an assay equivalent to 2.8.7. In addition, the cuvette was incubated at 37° C. for 20 hours and the absorbance reading repeated.

Turning to `O=[N+]([O-])c1ccc(O[C@@H]2O[C@H](CO)[C@@H](O)[C@H](O)[C@H]2O)cc1` [pNP-β-D-Glc, p-nitrophenyl β-D-glucopyranoside], the “tritosomal cleavage (production of p-nitrophenol, absorbance at 410 nm)” value is listed as “significant amount of p-nitrophenol had been released”.

For the compound `C[C@@H]1O[C@@H](Oc2ccc([N+](=O)[O-])cc2)[C@H](O)[C@H](O)[C@H]1O` [pNP-α-L-Rha, p-Nitrophenyl α-L-rhamnopyranoside], the “Readings from spectrometer, absorbance at 410 nm, Assay 1” value (from here on “Readings from spectrometer … Assay 1”) amounted to 0.158 (0 min, 0.093 mg/ml); 0.173 (0 min, 0.93 mg/ml); 0.155 (5 min, 0.093 mg/ml); 0.169 (5 min, 0.93 mg/ml); 0.153 (10 min, 0.093 mg/ml); 0.166 (10 min, 0.93 mg/ml). Further, the “Readings from spectrometer … Assay 1” value was found to be 0.151 (15 min, 0.093 mg/ml); 0.165 (15 min, 0.93 mg/ml); 0.150 (20 min, 0.093 mg/ml); 0.162 (20 min, 0.93 mg/ml); 0.150 (25 min, 0.093 mg/ml); 0.161 (25 min, 0.93 mg/ml). Also, the “Readings from spectrometer … Assay 1” value (30 min, 0.093 mg/ml) is 0.149; the “Readings from spectrometer … Assay 1” value (30 min, 0.93 mg/ml) came out at 0.158; the “Readings from spectrometer … Assay 1” value (20 h, 0.93 mg/ml) is reported as 0.138. In addition, the “Readings from spectrometer, absorbance at 410 nm, Assay 2” value (shortened to “Readings from spectrometer … Assay 2”) (0 min, 0.093 mg/ml) amounted to 0.160; the “Readings from spectrometer … Assay 2” value (0 min, 0.93 mg/ml) is reported as 0.172; the “Readings from spectrometer … Assay 2” value (5 min, 0.093 mg/ml) came out at 0.159; the “Readings from spectrometer … Assay 2” value (5 min, 0.93 mg/ml) turned out to be 0.170; the “Readings from spectrometer … Assay 2” value (10 min, 0.093 mg/ml) amounted to 0.159; the “Readings from spectrometer … Assay 2” value (10 min, 0.93 mg/ml) turned out to be 0.167. Also, the “Readings from spectrometer … Assay 2” value is on record as 0.158 (15 min, 0.093 mg/ml); 0.166 (15 min, 0.93 mg/ml); 0.159 (20 min, 0.093 mg/ml); 0.164 (20 min, 0.93 mg/ml); 0.157 (25 min, 0.093 mg/ml); 0.165 (25 min, 0.93 mg/ml). Also, the “Readings from spectrometer … Assay 2” value came out at 0.157 (30 min, 0.093 mg/ml); 0.163 (30 min, 0.93 mg/ml); 0.131 (20 h, 0.93 mg/ml).

In the case of `O=[N+]([O-])c1ccc(O[C@@H]2O[C@H](CO)[C@H](O)[C@H](O)[C@H]2O)cc1` [pNP-β-D-Gal, p-nitrophenyl β-D-galactopyranoside], the “tritosomal cleavage (production of p-nitrophenol, absorbance at 410 nm)” value was “significant amount of p-nitrophenol had been released”.
